Publication PMC7136958, “Targeting the pregnane X receptor using microbial metabolite mimicry” (EMBO Molecular Medicine, 2020)

What was measured:
[1] = test system: CYP1A1, CYP3A4, MDR1 mRNA in LS180 cells; assay: qRT-PCR of CYP1A1, CYP3A4, MDR1 mRNA in LS180 cells with or without (mock) transfected PXR; settings: for CYP1A1 mRNA induction: LS180 cells; for CYP1A1 mRNA fold to C / CYP3A4 mRNA fold to C / MDR-1 mRNA fold to C / MDR1 mRNA fold to C: normalised to GAPDH, fold to UT control
Experimental: Cells or primary human hepatocytes from four different donors (HEP200529, HEP220932, HEP200533, and HEP200538) were incubated for 24 h with test compounds; the vehicle was DMSO (0.1% v/v). Total RNA was isolated using TRI Reagent® (Molecular Research Center, Ohio, USA). cDNA was synthesized from 1,000 ng of total RNA using M‐MuLV Reverse Transcriptase (New England Biolabs, Ipswich, Massachusetts, USA) at 42°C for 60 min in the presence of random hexamers (New England Biolabs). Quantitative reverse transcriptase–polymerase chain reaction (qRT–PCR) was performed using LightCycler® 480 Probes Master on a LightCycler® 480 II apparatus (Roche Diagnostic Corporation).
The following protocol was used: An activation step at 95°C for 10 min was followed by 45 cycles of PCR (denaturation at 95°C for 10 s; annealing with elongation at 60°C for 30 s). The measurements were performed in triplicate. Gene expression was normalized per GAPDH as a housekeeping gene. […] Data are expressed as fold induction ± SD over the vehicle‐treated cells. The bar graph depicts one representative experiment of a series of experiments performed in three consecutive passages of cells. Differences were tested using one‐way ANOVA with Dunnett's post hoc test, and P < 0.05 was considered significant.

468 kinases = assay: DiscoverX scanMAX kinase panel (KINOMEscan); format: binding, human; settings: for kinase inhibition (in words): panel of 468 kinases
Experimental: Kinase Assays. The kinase inhibition assays were conducted by DiscoverX on a platform assay by Ambit BioSciences as described previously 16,17. FKK6 was screened at a single concentration of 10 μM in duplicate. The scanMAXSM assay panel measures 468 kinases
(https://www.discoverx.com/services/drug-discovery-development-services/kinase-profiling/kinomescan/scanmax). The assays measure a compound’s ability to inhibit binding of a canonical ligand substrate, with 0% activity of control corresponding to full inhibition and 100% activity of control to no inhibition. […]
quantitative measure of compound selectivity based on the number of kinase hits (enzymes inhibited) divided by the total number of distinct kinases tested. Three different activity cut-offs were analyzed – S(35) or % activity of control < 35; S(10) or % activity of control < 10; and S(1) or % activity of control < 1. To illustrate effect or lack of effect, an image of the entire family of kinases tested were grouped by families and S(35). The TREEspot Kinase dendrogram image was generated using TREEspot™ Software Tool and reprinted with permission from KINOME scan®, a division of DiscoveRx […]

IL-8 mRNA = assay: TNF-α-induced IL-8 mRNA in human colonic enteroids (Calgary Protocol); format: cell-based; settings: 10 μM, pair-wise vs DMSO
Experimental: Samples were immediately processed to yield isolated colonic crypts as previously described (Fernando et al, 2017). Isolated colonic crypts were embedded in Matrigel® (Corning) and cultured in Intesticult^tm Organoid Growth Media. Human organoids were pretreated for 6 h with either FKK5, FKK6, FKK9, or vehicle (DMSO), then stimulated with human recombinant TNF‐alpha in the presence of either treatment for an additional 12 h. Organoids were washed in PBS, disrupted in Tri Reagent® (Sigma, Oakville, ON, CAN), and frozen at −80°C. After thawing, chloroform was added, samples were centrifuged for 15 min, and the resulting aqueous phase was then added to equal volumes of 70% ethanol and further processed using the RNeasy mini kit (Qiagen). cDNA was synthesized using the QuantiTect RT kit (Qiagen) according to the manufacturer's protocol. Resulting cDNA was used as a template for quantitative real‐time PCR using Perfecta SYBR Green FastMix with ROX (QuantaBio). PCR and analysis were performed using a StepOne PCR System (Applied Biosystems). Gene expression was calculated relative to β‐actin expression and expressed as fold change of control. The primers used were as follows: Human®‐Actin (NM_001101), Human CYP3A4 (NM_001202855), and Human ABCB1 (NM_000927).

NF-κB = NF-κB nuclear translocation (immunofluorescence) in Caco-2 cells; format: cell-based, human; settings: 25 μM, with cytokines, 2 or 12 h
Experimental: HIOs and Caco‐2 were exposed to a pro‐inflammatory cytokine cocktail (10 ng/ml IFN‐γ, 10 ng/ml TNF‐α, 50 ng/ml IL‐1β) for 2–24 h in combination with DMSO or FKK5 and FKK6 compounds (10 and 25 μm). Relative mRNA levels of IL‐8 and IL‐6 were determined using quantitative real‐time PCR, with normalization to GAPDH. RNA was isolated using an RNeasy Mini Kit (Qiagen) as per the manufacturer's instructions. On column DNase (Qiagen) was used to remove any contaminating DNA. Next, cDNA was formed using iScript cDNA Synthesis Kit (Bio‐Rad) and 100 ng RNA. qRT–PCR was performed with SsoAdvanced Universal SYBR Green Kit (Bio‐Rad). The following primers were used: IL‐8 Forward: […]; IL‐8 Reverse: […]; IL‐6 Forward: […]; IL‐6 Reverse: […]; GAPDH Forward: […]; GAPDH Reverse: […]. For immunofluorescent staining of NF‐ĸB translocation to the cell nucleus, HIOs and Caco‐2 cell monolayers were fixed in 4% formaldehyde (in 1 × PBS) overnight at 4°C. The formaldehyde was removed by washing with 1 × PBS, and an antigen retrieval step was performed by incubating in 10 mM sodium citrate buffer in a vegetable steamer for 20 min. The samples were then blocked with normal donkey serum (10% in PBS with 0.3% Triton X‐100) for 1 h. […]

[2] = test system: ABCC2, UGT1A1, ABCB1, CYP3A4, GSTA1 mRNA; assay: PXR target gene mRNA in human duodenal enteroids; settings: for ABCB1 (MDR1) mRNA fold change, Mean / ABCC2 mRNA fold change, Mean / CYP3A4 mRNA fold change, Mean / GSTA1 mRNA fold change, Mean / UGT1A1 mRNA fold change, Mean: 10 μM, 24 h, n=3
Experimental: Discarded duodenum tissue after surgery was obtained and used to isolate crypts. Embedded crypts in Matrigel formed 3D structures referred to as “enteroids”. […] DMSO was added to enteroids as a negative control. After incubation for 24 h, enteroids were collected in RNA‐free tube followed by breaking down Matrigel by pipetting vigorously (using 1 ml PBS). The enteroids were pelleted at 16,000 g for 3 min (4°C). RNA was extracted using miRNA isolation kit (Invitrogen; #AM1561) using the protocol provided by Invitrogen. […] PowerUp SYBR Green (Applied Biosystem, #A25742) was used for RT–PCR and performed 40 cycles using Quant Studio3 (Invitrogen, #A28132).

Row | SMILES | CYP1A1 mRNA induction [1] | CYP1A1 mRNA fold to C ([1]; PXR-transfected LS180 cells) | CYP3A4 mRNA fold to C ([1]; PXR-transfected LS180 cells) | MDR-1 mRNA fold to C ([1]; PXR-transfected LS180 cells) | CYP1A1 mRNA fold to C ([1]; mock-transfected LS180 cells) | CYP3A4 mRNA fold to C ([1]; mock-transfected LS180 cells) | MDR1 mRNA fold to C ([1]; mock-transfected LS180 cells) | kinase inhibition (in words) (468 kinases) | TNF-α-induced IL-8 mRNA levels (IL-8 mRNA) | NF-κB localisation (NF-κB) | PXR target gene induction (in words) [2] | ABCB1 (MDR1) mRNA fold change, Mean [2] [fold] | ABCC2 mRNA fold change, Mean [2] [fold] | CYP3A4 mRNA fold change, Mean [2] [fold] | GSTA1 mRNA fold change, Mean [2] [fold] | UGT1A1 mRNA fold change, Mean [2] [fold] | other results
1 | O=C(c1ccncc1)c1cc2ccccc2n1S(=O)(=O)c1ccccc1 [FKK5, (1-(phenylsulfonyl)-1H-indol-2-yl)(pyridin-4-yl)methanone] | did not induce | 1.86 | 3.69 | 4.10 | 8.19 | 0.94 | 3.80 | neither of these compounds inhibited the kinases tested | significantly lowered | increased cytoplasmic | significantly induced | 2.409 | 4.345 | 2.034 | 4.61 | 1.773 | 
2 | C#CCC(O)(c1ccncc1)c1cc2ccccc2n1S(=O)(=O)c1ccccc1 (centres unmarked) [FKK6] | did not induce | 2.02 | 18.02 | 10.37 | 4.61 | 1.10 | 5.17 | neither of these compounds inhibited the kinases tested | did not reach statistical significance | increased cytoplasmic | significantly induced | 3.883 | 4.029 | 1.665 | 1.768 | 2.472 | CYP3A4 mRNA induction ([1]; PXR-transfected LS180 cells): induced; MDR1 mRNA induction ([1]; PXR-transfected LS180 cells): induced; Interactions Mapped (TREEspot) (468 kinases; 10 μM): 0; Number of Hits, S(1) (468 kinases; 10 μM, 403 non-mutant kinases): 0; Number of Hits, S(10) (468 kinases; 10 μM, 403 non-mutant kinases): 0; Number of Hits, S(35) (468 kinases; 10 μM, 403 non-mutant kinases): 0
